According to article PMC5478727, “A Novel Small Molecule GDNF Receptor RET Agonist, BT13, Promotes Neurite Growth from Sensory Neurons in Vitro and Attenuates Experimental Neuropathy in the Rat” (Frontiers in Pharmacology, 2017):

Tests used:
KATP channel = KATP channel (Rattus norvegicus, UniProt Q09429); experiment: CEREP KATP channel (antagonist radioligand); format: binding; details: BT13 1 μM; Cat. No. 0165; average of duplicate; read-out: Percentage of inhibition/potentiation from control
adenosine receptor A1 = adenosine receptor A1 (Homo sapiens, UniProt P30542); experiment: CEREP A1 (h) (antagonist radioligand); format: binding; details: BT13 1 μM; Cat. No. 0002; average of duplicate; read-out: Percentage of inhibition/potentiation from control
Sequence of adenosine receptor A1 (P30542 whole entry): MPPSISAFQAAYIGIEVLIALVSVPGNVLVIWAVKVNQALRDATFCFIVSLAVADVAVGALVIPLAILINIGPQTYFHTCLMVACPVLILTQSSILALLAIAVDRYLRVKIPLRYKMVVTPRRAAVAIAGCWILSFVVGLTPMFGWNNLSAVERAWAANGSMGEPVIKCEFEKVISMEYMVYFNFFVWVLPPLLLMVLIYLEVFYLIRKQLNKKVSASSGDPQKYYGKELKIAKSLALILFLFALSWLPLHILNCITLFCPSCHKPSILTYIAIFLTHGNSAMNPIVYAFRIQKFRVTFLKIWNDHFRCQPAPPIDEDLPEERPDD

[1] = target: T1, opioid receptor delta (DOP) (Mus musculus, UniProt P32300); experiment: CEREP Delta (DOP) (agonist effect); format: cell-based; details: BT13 1 μM, Cat. No. 2568, average of duplicate, read-out: Percentage of inhibition/potentiation from control
T1 construct: purchased CEREP (contract assay) 2568
T1 sequence (P32300 whole entry): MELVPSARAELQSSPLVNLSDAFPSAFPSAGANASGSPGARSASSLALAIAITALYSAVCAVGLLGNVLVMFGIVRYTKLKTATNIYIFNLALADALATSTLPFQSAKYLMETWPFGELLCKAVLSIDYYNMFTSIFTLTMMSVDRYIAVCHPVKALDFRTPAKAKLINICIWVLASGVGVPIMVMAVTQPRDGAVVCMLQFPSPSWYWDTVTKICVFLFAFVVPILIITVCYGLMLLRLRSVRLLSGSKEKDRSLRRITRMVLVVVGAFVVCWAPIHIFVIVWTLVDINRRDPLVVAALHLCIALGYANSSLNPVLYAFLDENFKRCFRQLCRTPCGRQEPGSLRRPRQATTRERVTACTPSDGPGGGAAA

[2] = test system: dorsal root ganglia neurons of SNL rats; experiment: Immunohistochemistry of DRG neuronal markers in rats with spinal nerve ligation; format: in vivo, rat
Description: DRGs from rats with spinal nerve ligation treated with BT13 or vehicle were embedded in paraffin and sectioned (7 μm thickness). Sections were deparaffinized, subjected to citrate or basic antigen-retrieval procedure and probed with IB4-Alexa 488 [1:200; IB4-Alexa488, Cat# IB4 (isolectin Griffonia simplicifolia IB4) RRID:AB_2314664] and antibodies against calcitonin gene-related peptide (CGRP; 1:10,000, Peninsula Laboratory, Cat# T-4032 RRID:AB_2313775), NPY (1:10,000, Peninsula Laboratory, Cat# T-4070.0050 RRID:AB_518504), pErk1/2 (1:300, Cell Signaling, Cat# 4370L RRID:AB_2297462), pS6 (1:300, Cell Signaling, Cat# 4858L RRID:AB_1031194) or RET [1:100, kind gift of Dr. E. Kramer, Center for Molecular Neurobiology, University Medical Center Hamburg-Eppendorf, Hamburg, Germany (Meka et al., [2015])] and corresponding secondary antibodies conjugated with fluorophores (Donkey Anti-Rabbit Alexa Fluor 647 conjugate, Cat# A31573 RRID:AB_162544; Donkey anti-Mouse Alexa Fluor 647 conjugate, Cat# A-31571 RRID:AB_2536181; Goat anti-Guinea Pig, Alexa Fluor 568 conjugate, Cat# A-11075 RRID:AB_2534119, Thermo Fisher Scientific, USA) or horse radish peroxidase (VECTASTAIN Elite ABC-Peroxidase Kit antibody, Vector Laboratories, CA, USA, Cat# PK-6101 RRID:AB_2336820). In the latter case, to reveal staining slides were treated with ABC and DAB staining kits (Vector Laboratories, CA, USA) according to the manufacturer's instructions. Sections were co-stained with guinea pig anti-PGP9.5 antibodies (Abcam Cat# ab10410 RRID:AB_297150) whenever possible. Nuclei were visualized using hematoxylin or DAPI dyes. Sections were mounted in Immu-Mount (Thermo Scientific, Cat#9990402) or Coverquick 2000 (Q PATH, Cat#05547530) mounting media and images were taken with fluorescent (Zeiss Imager M2 Axio, Carl Zeiss, Germany) or bright-field (Olympus BX-61, Olympus, Japan) microscopes. Neurons were counted for two sections per DRG and the number of cell profiles with nuclei positive for each specific marker was normalized to the total number of the neurons (identified by PGP9.5 staining or by morphology) per section. Ret-positive neurons were clustered by size using Matlab software R2014b (Mathworks, USA). Statistical analysis was performed using data from three to six individual animals. To obtain sufficient sample size, the data from animals treated with 20 and 25 mg/kg of BT13 were combined.

[3] = Plasma stability, mouse plasma; format: in vitro ADME; details: read-out: Plasma stability (% remaining after 1 h)
CYP1A2 = CYP1A2 (Homo sapiens, UniProt P05177); experiment: CYP inhibition, fluorescent assay; format: biochemical; details: read-out: Inhibition of CYP isoforms (IC50), CYP1A2
Sequence of CYP1A2 (P05177 whole entry, canonical isoform): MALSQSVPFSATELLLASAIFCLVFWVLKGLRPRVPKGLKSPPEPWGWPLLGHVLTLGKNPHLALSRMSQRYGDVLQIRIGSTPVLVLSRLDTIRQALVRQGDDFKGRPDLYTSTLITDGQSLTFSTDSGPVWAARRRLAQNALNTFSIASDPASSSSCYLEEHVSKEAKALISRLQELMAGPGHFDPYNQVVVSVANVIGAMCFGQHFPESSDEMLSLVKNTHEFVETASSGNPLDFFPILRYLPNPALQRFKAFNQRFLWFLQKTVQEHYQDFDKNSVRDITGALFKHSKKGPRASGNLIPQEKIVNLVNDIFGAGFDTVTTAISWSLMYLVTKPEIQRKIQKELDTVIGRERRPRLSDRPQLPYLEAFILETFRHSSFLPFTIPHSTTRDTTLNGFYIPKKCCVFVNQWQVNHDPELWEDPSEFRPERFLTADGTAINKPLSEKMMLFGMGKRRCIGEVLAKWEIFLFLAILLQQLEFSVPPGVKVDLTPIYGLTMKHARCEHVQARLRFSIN

[4] = target: T2, monoamine oxidase A (MAO-A) (Rattus norvegicus, UniProt P21396); experiment: CEREP MAO-A (antagonist radioligand); format: binding; details: BT13 1 μM; Cat. No. 0443; average of duplicate; read-out: Percentage of inhibition/potentiation from control
T2 construct: purchased CEREP (contract assay) 0443

[5] = target: T3, serotonin receptor 5-HT2C (Homo sapiens, UniProt P28335); experiment: CEREP 5-HT2C (h) (antagonist radioligand); format: binding; details: BT13 1 μM, Cat. No. 0137, average of duplicate, read-out: Percentage of inhibition/potentiation from control
T3 construct: purchased CEREP (contract assay) 0137, 1003
T3 sequence (P28335 33-458): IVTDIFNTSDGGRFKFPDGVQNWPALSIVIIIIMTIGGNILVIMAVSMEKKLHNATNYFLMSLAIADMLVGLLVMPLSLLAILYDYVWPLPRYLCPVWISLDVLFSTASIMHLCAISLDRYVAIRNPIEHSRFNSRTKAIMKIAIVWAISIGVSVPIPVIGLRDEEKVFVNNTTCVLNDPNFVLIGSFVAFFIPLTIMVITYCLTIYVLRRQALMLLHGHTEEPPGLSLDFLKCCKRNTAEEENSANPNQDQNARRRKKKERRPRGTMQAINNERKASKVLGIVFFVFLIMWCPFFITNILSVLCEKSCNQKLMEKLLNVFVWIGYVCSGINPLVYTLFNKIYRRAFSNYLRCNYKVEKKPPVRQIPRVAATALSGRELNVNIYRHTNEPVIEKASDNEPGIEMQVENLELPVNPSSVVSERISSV

GFRα3/RET = target: T4, GFRα3/RET (Homo sapiens, UniProt P07949); experiment: Luciferase reporter-gene assay (PathDetect Elk-1), GFRα3/RET reporter cells; format: cell-based; details: GFRα3/RET reporter cell line
T4 construct: full-length human RET (long isoform) in pCR3.1; expressed in transfected cells; host or cells: MG87 murine fibroblasts (MG87RET + PathDetect Elk-1 + GFRα3)
T4 sequence (P07949 29-1114): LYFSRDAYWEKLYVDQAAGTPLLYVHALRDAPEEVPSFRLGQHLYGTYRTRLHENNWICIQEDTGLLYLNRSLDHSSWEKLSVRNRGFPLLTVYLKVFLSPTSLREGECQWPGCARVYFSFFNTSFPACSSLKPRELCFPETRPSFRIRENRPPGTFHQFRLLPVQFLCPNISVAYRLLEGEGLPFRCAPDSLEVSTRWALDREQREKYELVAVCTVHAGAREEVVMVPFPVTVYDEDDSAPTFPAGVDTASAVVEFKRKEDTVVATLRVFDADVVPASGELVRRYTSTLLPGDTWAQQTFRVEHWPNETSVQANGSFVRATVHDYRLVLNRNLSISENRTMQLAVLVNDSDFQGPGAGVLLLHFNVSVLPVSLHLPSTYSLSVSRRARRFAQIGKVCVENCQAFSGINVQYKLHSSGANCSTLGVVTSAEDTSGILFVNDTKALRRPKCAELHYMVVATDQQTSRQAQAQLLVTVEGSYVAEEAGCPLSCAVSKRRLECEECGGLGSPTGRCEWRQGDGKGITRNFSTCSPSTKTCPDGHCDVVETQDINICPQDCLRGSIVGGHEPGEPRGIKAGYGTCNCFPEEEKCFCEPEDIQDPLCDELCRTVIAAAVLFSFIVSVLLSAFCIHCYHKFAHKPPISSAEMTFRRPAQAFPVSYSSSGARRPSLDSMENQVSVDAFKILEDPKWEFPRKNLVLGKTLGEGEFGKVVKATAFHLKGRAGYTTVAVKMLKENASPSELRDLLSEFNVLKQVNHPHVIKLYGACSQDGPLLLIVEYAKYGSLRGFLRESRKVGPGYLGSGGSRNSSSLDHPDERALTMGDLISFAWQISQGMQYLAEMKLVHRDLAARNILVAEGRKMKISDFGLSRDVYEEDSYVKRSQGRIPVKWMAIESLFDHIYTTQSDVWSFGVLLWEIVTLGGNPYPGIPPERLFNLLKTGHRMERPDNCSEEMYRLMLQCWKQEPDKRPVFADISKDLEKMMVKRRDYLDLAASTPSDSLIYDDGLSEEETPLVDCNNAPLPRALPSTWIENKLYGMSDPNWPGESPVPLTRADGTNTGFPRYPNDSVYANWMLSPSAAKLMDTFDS

[6] = target: T3, serotonin receptor 5-HT2C; experiment: CEREP 5-HT2C (h) (agonist radioligand); format: binding; details: BT13 1 μM, Cat. No. 1003, average of duplicate, read-out: Percentage of inhibition/potentiation from control
[7] = test system: COMT (catechol-O-methyl transferase); experiment: CEREP COMT (catechol-O-methyl transferase); format: biochemical; details: BT13 1 μM; Cat. No. 0457; average of duplicate
TrkA = target: T5, TrkA (Rattus norvegicus, UniProt P35739); experiment: Luciferase reporter-gene assay, TrkA reporter cells; format: cell-based; details: TrkA reporter cell line
T5 construct: expressed in transfected cells; host or cells: MG87 murine fibroblasts (MG87TrkA)
T5 sequence (P35739 33-799): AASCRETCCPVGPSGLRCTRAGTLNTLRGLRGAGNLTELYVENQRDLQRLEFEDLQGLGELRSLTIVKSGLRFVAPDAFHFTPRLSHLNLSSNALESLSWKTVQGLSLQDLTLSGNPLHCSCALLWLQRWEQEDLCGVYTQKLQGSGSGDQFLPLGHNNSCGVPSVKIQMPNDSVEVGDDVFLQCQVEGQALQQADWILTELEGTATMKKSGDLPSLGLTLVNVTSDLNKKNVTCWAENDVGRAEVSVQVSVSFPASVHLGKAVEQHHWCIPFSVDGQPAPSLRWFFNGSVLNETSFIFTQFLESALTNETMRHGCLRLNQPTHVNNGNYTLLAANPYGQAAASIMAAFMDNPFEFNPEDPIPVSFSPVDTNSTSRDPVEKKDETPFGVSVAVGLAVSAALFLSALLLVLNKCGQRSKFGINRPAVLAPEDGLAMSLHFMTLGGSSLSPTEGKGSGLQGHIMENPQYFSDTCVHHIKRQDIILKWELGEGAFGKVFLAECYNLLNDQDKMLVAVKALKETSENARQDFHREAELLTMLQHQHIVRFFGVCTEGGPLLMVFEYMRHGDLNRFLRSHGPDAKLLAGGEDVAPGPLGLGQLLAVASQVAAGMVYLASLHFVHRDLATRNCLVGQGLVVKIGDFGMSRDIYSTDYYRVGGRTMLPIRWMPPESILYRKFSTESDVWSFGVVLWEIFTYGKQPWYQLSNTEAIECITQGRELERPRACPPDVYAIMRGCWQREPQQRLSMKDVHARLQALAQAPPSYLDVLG

[8] = SNL rats, BT13 vs vehicle, day 12
[9] = SNL rats, vs vehicle-treated animals

Sequence of KATP channel (Q09429 whole entry): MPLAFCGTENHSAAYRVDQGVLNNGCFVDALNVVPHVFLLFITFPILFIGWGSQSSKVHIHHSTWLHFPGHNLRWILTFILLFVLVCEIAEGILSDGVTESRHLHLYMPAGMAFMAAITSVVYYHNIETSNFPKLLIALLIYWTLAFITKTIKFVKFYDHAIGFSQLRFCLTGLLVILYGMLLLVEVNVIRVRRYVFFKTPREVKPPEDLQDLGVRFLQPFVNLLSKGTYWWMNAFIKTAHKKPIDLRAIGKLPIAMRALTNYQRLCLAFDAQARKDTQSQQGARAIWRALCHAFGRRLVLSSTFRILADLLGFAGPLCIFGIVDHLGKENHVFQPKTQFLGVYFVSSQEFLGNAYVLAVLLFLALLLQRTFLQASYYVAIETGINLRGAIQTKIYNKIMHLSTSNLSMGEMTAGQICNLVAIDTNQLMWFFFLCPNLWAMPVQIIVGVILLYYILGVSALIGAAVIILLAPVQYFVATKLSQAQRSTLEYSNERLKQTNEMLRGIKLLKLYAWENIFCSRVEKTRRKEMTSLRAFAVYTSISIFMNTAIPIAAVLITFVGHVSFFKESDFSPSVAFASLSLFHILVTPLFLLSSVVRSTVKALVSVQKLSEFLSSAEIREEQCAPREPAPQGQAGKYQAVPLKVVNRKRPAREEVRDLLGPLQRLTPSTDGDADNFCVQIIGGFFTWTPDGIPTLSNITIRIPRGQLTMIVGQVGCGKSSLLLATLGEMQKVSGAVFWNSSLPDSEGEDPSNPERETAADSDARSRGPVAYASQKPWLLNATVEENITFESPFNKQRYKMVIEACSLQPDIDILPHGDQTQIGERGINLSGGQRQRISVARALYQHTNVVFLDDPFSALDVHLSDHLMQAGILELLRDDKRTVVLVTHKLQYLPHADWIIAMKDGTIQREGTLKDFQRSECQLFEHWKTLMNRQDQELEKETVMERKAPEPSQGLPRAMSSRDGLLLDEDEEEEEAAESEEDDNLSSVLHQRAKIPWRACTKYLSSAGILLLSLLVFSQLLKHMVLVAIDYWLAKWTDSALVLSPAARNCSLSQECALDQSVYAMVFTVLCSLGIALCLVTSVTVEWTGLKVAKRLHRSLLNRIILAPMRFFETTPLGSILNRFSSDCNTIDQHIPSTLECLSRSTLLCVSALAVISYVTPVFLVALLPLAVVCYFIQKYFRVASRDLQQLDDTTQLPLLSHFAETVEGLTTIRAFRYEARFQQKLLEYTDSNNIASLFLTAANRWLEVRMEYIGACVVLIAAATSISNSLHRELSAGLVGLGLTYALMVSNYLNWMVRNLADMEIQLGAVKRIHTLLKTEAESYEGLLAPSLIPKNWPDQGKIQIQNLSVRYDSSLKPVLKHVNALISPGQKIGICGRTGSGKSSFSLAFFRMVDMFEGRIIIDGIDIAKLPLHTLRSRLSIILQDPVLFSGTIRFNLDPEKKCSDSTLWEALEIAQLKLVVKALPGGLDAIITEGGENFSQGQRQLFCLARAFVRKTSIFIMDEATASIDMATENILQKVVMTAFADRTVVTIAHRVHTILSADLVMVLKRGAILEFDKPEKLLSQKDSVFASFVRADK
Sequence of KATP channel (P70673 whole entry partner): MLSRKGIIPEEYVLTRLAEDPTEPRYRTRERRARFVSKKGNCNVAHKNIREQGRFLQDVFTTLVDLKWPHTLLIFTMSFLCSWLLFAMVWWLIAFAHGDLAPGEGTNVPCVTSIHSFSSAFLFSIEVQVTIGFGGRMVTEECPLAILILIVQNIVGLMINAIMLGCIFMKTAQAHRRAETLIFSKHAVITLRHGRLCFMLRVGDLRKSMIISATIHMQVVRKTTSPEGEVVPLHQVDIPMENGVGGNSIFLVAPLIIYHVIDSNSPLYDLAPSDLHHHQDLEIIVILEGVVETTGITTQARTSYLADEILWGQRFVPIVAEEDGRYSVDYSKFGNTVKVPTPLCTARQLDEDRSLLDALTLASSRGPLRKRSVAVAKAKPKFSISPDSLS

## CCN(CC)S(=O)(=O)c1ccc(OC)c(N2CCN(C(=O)c3ccc(F)cc3C(F)(F)F)CC2)c1 [BT13]
KATP channel
  inhibition at 1 µM: 8%
Adenosine receptor A1
  inhibition at 1 µM: 5%
[1]
  inhibition at 1 µM: -5.2%
[2]; IHC, day 12 after SNL
  reduction in the number of RET-positive cells in DRGs after SNL: restored
[2]; IHC, size above 1,000 μm^2, vs contralateral
  number of large RET-positive neurons in lesioned DRGs: increased
[2]; IHC, size below 1,000 μm^2, vs contralateral
  number of small RET-positive neurons in lesioned DRGs: decreased
[2]; SNL rats, BT13 20 and 25 mg/kg combined, day 12
  IB4 positive cells per section in ipsilateral DRGs: 3%
[2]; SNL rats, BT13-treated, vehicle 0.0 ± 0.0
  number of NPY-positive neurons in contralateral DRGs: 0.0 ± 0.0
[2]; SNL rats, BT13-treated, vehicle 34.30 ± 1.344
  number of CGRP-positive neurons in contralateral DRGs: 25.09 ± 2.687
[2]; SNL rats, BT13-treated, vehicle 44.95 ± 4.295
  number of IB4-positive neurons in contralateral DRGs: 44.82 ± 1.960
[2]; [8]
  increase in number of CGRP-positive neurons in ipsilateral DRGs: ~ 2 times
  reduction in number of NPY-positive cells in ipsilateral DRGs: ~ 25%
[2]; [9]
  number of neurons positive for pErk in DRGs: increased
  number of neurons positive for pS6 in DRGs: increased
[3]
  remaining at 1 h: 110 ± 3.1%
CYP1A2
  IC50: > 100 µM
[4]
  inhibition at 1 µM: 5%
[5]
  inhibition at 1 µM: 11%
GFRα3/RET
  efficacy, fold induction of luciferase above baseline: 8.9 fold
GFRα3/RET; 0.1–50 μM, read-out: EC50, luciferase activation
  EC50: 20.5 µM
[6]
  inhibition at 1 µM: 6%
[7]
  Percentage of inhibition/potentiation from control: −2%
TrkA
  activation of luciferase reporter: did not activate luciferase
